This assay deals with croton oil-induced ear edema. As to the kind of experiment: Croton oil-induced ear edema in mice. As to conditions: dexamethasone 1 mg/kg, 1 2 mg/kg. Format: in vivo, Balb/c mice. The text has this: The presents study aims to detect the inflammatory/anti-inflammatory potential effects of compound 1 in a model of acute skin inflammation induced by local application of phlogistic agent croton oil in Balb/c mice. The technique for croton oil-induced ear edema in mice, originally described by Tubaro et al., was followed, with modifications; see literature references 16 and 17: • 16) A. Tubaro, P. Dri, G. Delbello, C. Zilli, R. Della Loggia: The croton oil ear test revisited, Agents Actions 17 (1986) 347-349. • 17) G. Coruzzi, C. Pozzoli, M. Adami, D. Grandi, N. Guido, R. Smits, I. de Esch and R. Leurs: Strain-dependent effects of the histamine H4 receptor antagonist JNJ7777120 in a murine model of acute skin inflammation, Experimental Dermatology 21 (2011) 32-37.
Mice (total 40) were separated into 4 groups (n=10). Each group was treated under different regimen:
Cutaneous inflammation was induced in conscious mice by topical application of croton oil (5% in acetone).
Six hours after croton oil application, mice were euthanized by light ether anaesthesia, followed by cervical dislocation; both left (acetone) and right (croton oil in acetone) ears were removed, by cutting horizontally across the indentation at the base of the ear. For each mouse, the extent of the oedema was expressed as the difference in weight (Δ [mg]) between right (inflamed) and left (uninflamed) ear. The percentage increase in the oedema of the treated ear was calculated by the following formula: […]
The presents study aims to detect the inflammatory/anti-inflammatory potential effects of compound 1 in a model of acute skin inflammation induced by local application of phlogistic agent croton oil in Balb/c mice. The technique for croton oil-induced ear edema in mice, originally described by Tubaro et al., was followed, with modifications; see literature references 16 and 17.
In preliminary experiments, the effect of subcutaneous (s.c.) administration of saline, 100% DMSO or 20% 2-hydroxypropyl-β-cyclodextrin was investigated to check the vehicle effects on ear inflammation.
The statistical significance between the groups was assessed by one-way analysis of variance (ANOVA) followed by a post hoc Tukey test. The accepted level of significance for the test was P<0.05. All tests were carried out using GraphPad Software (San Diego, Calif., USA).

As to `C[C@@H]1C[C@H]2[C@@H]3CCC4=CC(=O)C=C[C@]4(C)[C@@]3(F)[C@@H](O)C[C@]2(C)[C@@]1(O)C(=O)CO` [dexamethasone, reference compound], the “Percentage of increasing the ear edema” value (6 h after croton oil) was determined as 44.2%. Also, the “Maximal inhibition of croton oil-induced ear oedema” value (Balb/c mice, 6 h) is recorded as “approximately 60%”. Further, the Left ear m (left ear: 80% 2HPβCD + 20% DMSO (uninflamed), 6 h) is given as 0.0360 g. The Right ear m (right ear: substance + croton oil after 30 min, 6 h) came to 0.0519 g.

(Values after US20210113522A1, “COUMARIN DERIVATIVE AS ANTI-ASTHMATIC AGENT, PHARMACEUTICAL COMPOSITION THEREOF, ITS PREPARATION AND USE” (I-NOVA MEDICINSKA ISTRAZIVANJA D.O.O., priority 2017, published 2021).)
